Drawing on ChEMBL document CHEMBL1129120, “Anti-human immunodeficiency and anti-hepatitis B virus activities of -l-2,3-dideoxy purine nucleosides” (Bioorg Med Chem Lett, 1996), this text covers IC50 and EC50 for 6 molecules.

One may read the IC50 as the midpoint of a concentration-inhibition curve. A high value points to weaker potency in that assay. What is called EC50 is the concentration at which the effect is half-maximal. Low readings indicate greater potency, high ones weaker potency.

Assay [1] relates to HepG2. In words: Concentration required to inhibit 50% of 2.2.15 cell line. It counts as functional, cell-based. To be noted: Homo sapiens.
Assay [2] in a line: Concentration required to inhibit 50% of human peripheral blood mononuclear cells. In kind it is functional.
A short description of assay [3]: Antiviral activity against HIV in human peripheral blood mononuclear cells (PBMC). It counts as functional.
The subject of assay [4] is CCRF-CEM. In words: Antiviral activity against HIV in CEM cell line. In kind it is functional, cell-based. To be noted: Homo sapiens.
The test system of assay [5] is CCRF-CEM. Briefly: Concentration required to inhibit 50% of CEM cell lines. It counts as functional, cell-based. To be noted: Homo sapiens.
Assay [6] relates to HepG2. In words: Antiviral activity against Hepatitis B virus in 2.2.15 cell line. To be noted: Homo sapiens. In kind it is functional, cell-based.

Regarding `Nc1nc(O)c2ncn([C@@H]3C=C[C@H](CO)O3)c2n1`, the values for the IC50 (with HepG2 [1]; in assay [2]; in the assay on CCRF-CEM [5]) were 50 µM, over 100 µM and over 10 µM, respectively. The 50% effective concentration (EC50) was 14.1 µM in assay [3], 18.1 µM in the assay with CCRF-CEM [4] and over 10 µM in the assay with HepG2 [6].
For the molecule `OC[C@H]1C=C[C@@H](n2cnc3c(O)ncnc32)O1`, the concentration for half-maximal inhibition (IC50) in the assay on HepG2 [1] came to 50 µM; in assay [2], 60 µM. Further, the half-maximal effective concentration (EC50) in assay [3] is 5.5 µM; in the assay with HepG2 [6], over 10 µM.
On the same counts, the results for `Nc1ncnc2c1ncn2[C@H]1CC[C@@H](CO)O1` (single isomer, unassigned) are over 200 µM, over 100 µM, 8.2 µM and 6 µM.
For `Nc1ncnc2c1ncn2[C@H]1C=C[C@@H](CO)O1` (single isomer, unassigned), the concentration for half-maximal inhibition (IC50) in the assay with HepG2 [1] came to 70 µM; in assay [2], 59 µM; in the assay on CCRF-CEM [5], 37 µM. For the same molecule, the half-maximal effective concentration (EC50) in assay [3] amounted to 0.38 µM; with CCRF-CEM [4], 0.54 µM; with HepG2 [6], 1.2 µM.
For the molecule `Nc1nc(O)c2ncn([C@H]3CC[C@@H](CO)O3)c2n1` (single isomer, unassigned), the IC50 with HepG2 [1] is 200 µM; in assay [2], over 100 µM; in the assay on CCRF-CEM [5] it was over 100 µM. Further, the 50% effective concentration (EC50) was over 100 µM in assay [3], over 100 µM in the assay on CCRF-CEM [4] and over 10 µM in the assay on HepG2 [6].
In the case of `O=c1[nH]cnc2c1ncn2[C@H]1CC[C@@H](CO)O1` (single isomer, unassigned) [DIDANOSINE], the IC50 in the assay with HepG2 [1] is over 200 µM; in assay [2], over 100 µM. Further, the EC50 is over 100 µM in assay [3] and over 10 µM in the assay with HepG2 [6].
